Tests used:
[1] = system: adult patients with established PONV who have had prior PONV prophylaxis; assay: Study 1: rescue treatment of established PONV after failed prior prophylaxis; format: in vivo, human; conditions: for complete response (CR) rate: no emesis 30 min to 24 h and no rescue medication in 24 h, placebo 28.5%
Protocol: A randomised, double-blind, placebo-controlled study of amisulpride for IV injection as treatment of established postoperative nausea and vomiting, in patients who have had prior prophylaxis was conducted. The primary aim of the study was to compare the efficacy of 5 mg and 10 mg amisulpride to placebo as treatment of established PONV, in patients who have had prior PONV prophylaxis.
The study was performed in adult patients (≥18 years) with an expected duration of inhalational anaesthesia of at least 1 hour, who experienced PONV in the 24-hour period after surgery, having had prior PONV prophylaxis.
Amisulpride at a dose of 5 mg or 10 mg or matching placebo was given once by slow IV administration, over about 2 minutes.
The primary efficacy variable was the dichotomous variable: success or failure of initial PONV treatment, where success is defined as no emetic episodes (vomiting or retching) from 30 minutes to 24 hours after administration of study medication and no administration of antiemetic rescue medication at any time in the 24-hour period after study medication (a “complete response”).
The secondary efficacy variables included: • The occurrence and severity of nausea (a VRS score >0) and of significant nausea (a VRS score ≥4), including measures of the time course of nausea, such as area under the curve for nausea scores for time periods up to 24 hours. • The occurrence of vomiting (to include retching) after administration of study medication. • Use of anti-emetic rescue medication. • Time to failure of initial PONV treatment. • Sub-analyses of success and failure according to various parameters, including by time of onset of PONV relative to end of surgery and by sex.

[2] = system: patients with PONV who had not received prior prophylaxis; assay: Clinical trial, treatment of PONV in patients without prior prophylaxis; format: in vivo, human; conditions: no prior prophylaxis
Protocol: In another clinical trial conducted by the applicant, amisulpride at doses of 5 mg and 10 mg were compared with placebo for the treatment of PONV, in patients who had not received prior prophylaxis.

[3] = system: adult surgical patients at moderate-to-high risk of suffering PONV; assay: Phase II dose-ranging trial, IV amisulpride for PONV prophylaxis; format: in vivo, human
Protocol: In a multi-centre, double-blind, randomised, dose-ranging Phase II trial (conducted by the applicant), amisulpride was given intravenously to adult surgical patients at moderate-to-high risk of suffering PONV (prophylaxis), at doses of 1 mg, 5 mg and 20 mg, with a fourth group receiving placebo.

[4] = system: adult surgical patients at high risk of suffering PONV; assay: Phase III trial, PONV prophylaxis in combination with a standard anti-emetic; format: in vivo, human; conditions: 5 mg in combination with a standard anti-emetic, 1147 evaluable patients, p<0.001 vs placebo plus standard anti-emetic (53%)
[5] = system: adult surgical patients at moderate-to-high risk of suffering PONV; assay: Two Phase III placebo-controlled trials, PONV prophylaxis; format: in vivo, human; conditions: 5 mg, 626 evaluable patients, p<0.01 vs placebo (59%)
[6] = compared with the (R+)-enantiomer; cited from earlier work

Row | Compound | complete response (CR) rate ([1]; 5 mg once by slow IV, 237 patients, p = 0.109) | complete response (CR) rate ([1]; 10 mg once by slow IV, 230 patients, p = 0.003) | efficacy as PONV rescue treatment, 10 mg versus 5 mg dose ([1]; patients with prior unsuccessful PONV prophylaxis) | treatment of PONV versus placebo ([2]; 5 mg) | treatment of PONV versus placebo ([2]; 10 mg) | clinical efficacy, 5 mg versus 10 mg dose ([2]; treatment of PONV) | incidence of PONV ([3]; 1 mg intravenously, p<0.05 vs placebo (69%)) | incidence of PONV ([3]; 5 mg intravenously, p<0.01 vs placebo (69%)) | incidence of PONV compared to placebo ([3]; 20 mg intravenously, placebo 69%, not stated as significant) | incidence of PONV [4] | incidence of PONV [5] | share of therapeutic activity of amisulpride [6]
1 | CCN1CCCC1CNC(=O)c1cc(S(=O)(=O)CC)c(N)cc1OC (racemic) [amisulpride] | 33.8% (p = 0.109) | 41.7%, (p = 0.003) | more effective | significantly better than placebo | significantly better than placebo | no difference | 48% | 40% | lower | 42% | 48% | –
2 | CCN1CCCC1CNC(=O)c1cc(S(=O)(=O)CC)c(N)cc1OC (stereo not drawn) [(S−)-amisulpride] | – | – | – | – | – | – | – | – | – | – | – | almost all of the therapeutic activity
